Measured values: patent US9238039B2, “Pyrazolo[1,5-A]pyrimidines for antiviral treatment” (Gilead Sciences, Inc., priority 2010, dated 2016)

Test system: RSV strain A2
Experiment: RSV antiviral cytoprotection assay in Hep2 cells (96-well and 384-well format, Cell TiterGlo read-out)
Type: cell-based, Respiratory Syncytial Virus (RSV)
Conditions: human respiratory syncytial virus, HEp-2, 0.5 uM; RSV-induced cytopathic effect in Hep2 cells; calculated from fitted dose response curve, normalized to 0% and 100%

Compound	inhibition at 0.5 µM [%]
Cc1cn2nc([C@@H]3CCCCN3C(=O)c3cc(Cl)ccc3NS(C)(=O)=O)cc2nc1N1CC(C)C1 [Compound 129]	100
CS(=O)(=O)Nc1ccc(Cl)cc1C(=O)N1CCCC[C@H]1c1cc2nc(N3CC(O)C3)cc(N3CC(N)C3)n2n1 [Compound 130]	100
CS(=O)(=O)Nc1ccc(Cl)cc1C(=O)N1CCCC[C@H]1c1cc2nc(N3CC(N)C3)cc(N3CC(N)C3)n2n1 [Compound 131]	100
CS(=O)(=O)Nc1ccc(Cl)cc1C(=O)N1CCCC[C@H]1c1cc2nc(N3CC[C@@H](O)C3)cc(N3CC(N)C3)n2n1 [Compound 132]	97
CS(=O)(=O)Nc1ccc(Cl)cc1C(=O)N1CCCC[C@H]1c1cc2nc(N3CCC3)cc(N3CC(N)C3)n2n1 [Compound 133]	96
Cc1cn2nc([C@@H]3CCCCN3C(=O)c3cc(Cl)ccc3NS(C)(=O)=O)cc2nc1-c1ccccc1 [Compound 134]	98
Cc1cn2nc([C@@H]3CC[C@H](C)CN3C(=O)c3cc(Cl)ccc3NS(C)(=O)=O)cc2nc1N1CC(O)C1 [Compound 135]	100
Cc1cn2nc([C@@H]3CC[C@H](C)CN3C(=O)c3cc(Cl)ccc3NS(C)(=O)=O)cc2nc1N1CC[C@@H](O)C1 [Compound 136]	100
Cc1cn2nc([C@@H]3CC[C@H](C)CN3C(=O)c3cc(Cl)ccc3NS(C)(=O)=O)cc2nc1N1CC(N)C1 [Compound 137]	100
Cc1cn2nc([C@@H]3CC[C@H](C)CN3C(=O)c3cc(Cl)ccc3NS(C)(=O)=O)cc2nc1N1CCC1 [Compound 138]	100
Cc1cn2nc([C@@H]3CCCCN3C(=O)c3cc(Cl)ccc3NS(C)(=O)=O)cc2nc1NC(=N)N [Compound 139]	99
Cc1cn2nc([C@@H]3CCCCN3C(=O)c3cc(Cl)ccc3NS(C)(=O)=O)cc2nc1N1CCCN1 [Compound 140]	100
Cc1cn2nc([C@@H]3CCCCN3C(=O)c3cc(Cl)ccc3NS(C)(=O)=O)cc2nc1N1CCCCN1 [Compound 141]	95
C[C@H]1CC[C@@H](c2cc3nc(N4CC(N)C4)cc(N4CCOCC4)n3n2)N(C(=O)c2cc(Cl)ccc2NS(C)(=O)=O)C1 [Compound 142]	100
C[C@H]1CC[C@@H](c2cc3nc(N4CCC4)cc(N4CCOCC4)n3n2)N(C(=O)c2cc(Cl)ccc2NS(C)(=O)=O)C1 [Compound 143]	100
Cc1cn2nc([C@@H]3CCCCN3C(=O)c3cc(Cl)ccc3NS(C)(=O)=O)cc2nc1N1CC(OC(=O)CCC(=O)O)C1 [Compound 144]	99
CS(=O)(=O)Nc1ccc(Cl)cc1C(=O)N1CCCC[C@H]1c1cc2nc(N3CCC3)cc(N3CCCN3)n2n1 [Compound 145]	99
Cc1cn2nc([C@@H]3CCCCN3C(=O)c3cc(Cl)ccc3NS(C)(=O)=O)cc2nc1N1CCN=C1N [Compound 146]	99
CS(=O)(=O)Nc1ccc(Cl)cc1C(=O)N1CCCC[C@H]1c1cc2nc(N3CCC3)cc(N3C[C@H]4C[C@@H]3CN4)n2n1 [Compound 147]	98
Cc1cn2nc([C@@H]3CCCCN3C(=O)c3cc(Cl)ccc3NS(C)(=O)=O)cc2nc1N1C[C@@H]2[C@@H](N)[C@@H]2C1 [Compound 148]	100
Cc1cn2nc([C@@H]3CCCCN3C(=O)c3cc(Cl)ccc3NS(C)(=O)=O)cc2nc1N[C@H](C)CO [Compound 149]	98
Cc1cn2nc([C@@H]3CCCCN3C(=O)c3cc(Cl)ccc3NS(C)(=O)=O)cc2nc1N(C)CCO [Compound 150]	97
Cc1cn2nc([C@@H]3CCCCN3C(=O)c3cc(Cl)ccc3NS(C)(=O)=O)cc2nc1N1CC[C@@H](CN)C1 [Compound 151]	99
Cc1cccc(C(=O)N2CCCC[C@H]2c2cc3nc(N4CC[C@H](C#N)C4)c(C)cn3n2)c1 [Compound 152]	100
Cc1cn2nc([C@@H]3CCCCN3C(=O)c3cccc(N)c3)cc2nc1N1CC[C@H](C#N)C1 [Compound 153]	100
C[C@@H]1CN(c2cc(N3CCC3)nc3cc([C@@H]4CCCCN4C(=O)c4cc(Cl)ccc4NS(C)(=O)=O)nn23)CCN1 [Compound 154]	100
C[C@H]1CN(c2cc(N3CCC3)nc3cc([C@@H]4CCCCN4C(=O)c4cc(Cl)ccc4NS(C)(=O)=O)nn23)CCN1 [Compound 155]	100

Same assay, conditions: human respiratory syncytial virus, HEp-2, RSV-induced cytopathic effects, Hep2 cells; class symbols

Compound	EC50 [nM]
Cc1cn2nc([C@@H]3CCCCN3C(=O)c3cc(Cl)ccc3NS(C)(=O)=O)cc2nc1N1CC(C)C1 [Compound 129]	0.1 to 100
CS(=O)(=O)Nc1ccc(Cl)cc1C(=O)N1CCCC[C@H]1c1cc2nc(N3CC(O)C3)cc(N3CC(N)C3)n2n1 [Compound 130]	0.1 to 100
CS(=O)(=O)Nc1ccc(Cl)cc1C(=O)N1CCCC[C@H]1c1cc2nc(N3CC(N)C3)cc(N3CC(N)C3)n2n1 [Compound 131]	0.1 to 100
CS(=O)(=O)Nc1ccc(Cl)cc1C(=O)N1CCCC[C@H]1c1cc2nc(N3CC[C@@H](O)C3)cc(N3CC(N)C3)n2n1 [Compound 132]	0.1 to 100
CS(=O)(=O)Nc1ccc(Cl)cc1C(=O)N1CCCC[C@H]1c1cc2nc(N3CCC3)cc(N3CC(N)C3)n2n1 [Compound 133]	0.1 to 100
Cc1cn2nc([C@@H]3CCCCN3C(=O)c3cc(Cl)ccc3NS(C)(=O)=O)cc2nc1-c1ccccc1 [Compound 134]	0.1 to 100
Cc1cn2nc([C@@H]3CC[C@H](C)CN3C(=O)c3cc(Cl)ccc3NS(C)(=O)=O)cc2nc1N1CC(O)C1 [Compound 135]	0.1 to 100
Cc1cn2nc([C@@H]3CC[C@H](C)CN3C(=O)c3cc(Cl)ccc3NS(C)(=O)=O)cc2nc1N1CC[C@@H](O)C1 [Compound 136]	0.1 to 100
Cc1cn2nc([C@@H]3CC[C@H](C)CN3C(=O)c3cc(Cl)ccc3NS(C)(=O)=O)cc2nc1N1CC(N)C1 [Compound 137]	0.1 to 100
Cc1cn2nc([C@@H]3CC[C@H](C)CN3C(=O)c3cc(Cl)ccc3NS(C)(=O)=O)cc2nc1N1CCC1 [Compound 138]	0.1 to 100
Cc1cn2nc([C@@H]3CCCCN3C(=O)c3cc(Cl)ccc3NS(C)(=O)=O)cc2nc1NC(=N)N [Compound 139]	0.1 to 100
Cc1cn2nc([C@@H]3CCCCN3C(=O)c3cc(Cl)ccc3NS(C)(=O)=O)cc2nc1N1CCCN1 [Compound 140]	0.1 to 100
Cc1cn2nc([C@@H]3CCCCN3C(=O)c3cc(Cl)ccc3NS(C)(=O)=O)cc2nc1N1CCCCN1 [Compound 141]	0.1 to 100
C[C@H]1CC[C@@H](c2cc3nc(N4CC(N)C4)cc(N4CCOCC4)n3n2)N(C(=O)c2cc(Cl)ccc2NS(C)(=O)=O)C1 [Compound 142]	0.1 to 100
C[C@H]1CC[C@@H](c2cc3nc(N4CCC4)cc(N4CCOCC4)n3n2)N(C(=O)c2cc(Cl)ccc2NS(C)(=O)=O)C1 [Compound 143]	0.1 to 100
Cc1cn2nc([C@@H]3CCCCN3C(=O)c3cc(Cl)ccc3NS(C)(=O)=O)cc2nc1N1CC(OC(=O)CCC(=O)O)C1 [Compound 144]	0.1 to 100
CS(=O)(=O)Nc1ccc(Cl)cc1C(=O)N1CCCC[C@H]1c1cc2nc(N3CCC3)cc(N3CCCN3)n2n1 [Compound 145]	0.1 to 100
Cc1cn2nc([C@@H]3CCCCN3C(=O)c3cc(Cl)ccc3NS(C)(=O)=O)cc2nc1N1CCN=C1N [Compound 146]	0.1 to 100
CS(=O)(=O)Nc1ccc(Cl)cc1C(=O)N1CCCC[C@H]1c1cc2nc(N3CCC3)cc(N3C[C@H]4C[C@@H]3CN4)n2n1 [Compound 147]	0.1 to 100
Cc1cn2nc([C@@H]3CCCCN3C(=O)c3cc(Cl)ccc3NS(C)(=O)=O)cc2nc1N1C[C@@H]2[C@@H](N)[C@@H]2C1 [Compound 148]	0.1 to 100
Cc1cn2nc([C@@H]3CCCCN3C(=O)c3cc(Cl)ccc3NS(C)(=O)=O)cc2nc1N[C@H](C)CO [Compound 149]	0.1 to 100
Cc1cn2nc([C@@H]3CCCCN3C(=O)c3cc(Cl)ccc3NS(C)(=O)=O)cc2nc1N(C)CCO [Compound 150]	0.1 to 100
Cc1cn2nc([C@@H]3CCCCN3C(=O)c3cc(Cl)ccc3NS(C)(=O)=O)cc2nc1N1CC[C@@H](CN)C1 [Compound 151]	0.1 to 100
Cc1cccc(C(=O)N2CCCC[C@H]2c2cc3nc(N4CC[C@H](C#N)C4)c(C)cn3n2)c1 [Compound 152]	0.1 to 100
Cc1cn2nc([C@@H]3CCCCN3C(=O)c3cccc(N)c3)cc2nc1N1CC[C@H](C#N)C1 [Compound 153]	0.1 to 100
C[C@@H]1CN(c2cc(N3CCC3)nc3cc([C@@H]4CCCCN4C(=O)c4cc(Cl)ccc4NS(C)(=O)=O)nn23)CCN1 [Compound 154]	0.1 to 100
C[C@H]1CN(c2cc(N3CCC3)nc3cc([C@@H]4CCCCN4C(=O)c4cc(Cl)ccc4NS(C)(=O)=O)nn23)CCN1 [Compound 155]	0.1 to 100
